Results from US8673965B2, “Composition for the treatment of arthritis containing a dibenzo-p-dioxin derivative as the active ingredient” (Livechem, Inc., priority 2008, dated 2014).

Key:
AP-1 = assay: AP-1-luciferase reporter in IL-1α-stimulated rabbit articular cartilage tissue; type: cell-based; conditions: 10 μg/mL, 5 ng/mL rhIL-1α; for inhibition at 10 µg/mL: Oryctolagus cuniculus, AP1, luciferase activity
Protocol: (§1) A five-week-old rabbit was killed, from the hock joint of which the articular cartilage was then taken. The articular surface (200˜220 mg/joint) was placed in a complete medium (DMEM, supplemented with heat inactivated 5% FBS; penicillin 100 U/mL; streptomycin 100 μg/mL) under sterile conditions. It was washed three or four times and then incubated at 37° C. for about 1˜2 days under sterile conditions and under 5% CO2/95% air conditions, after which AP-1-luciferase or NFkB-luciferase reporter plasmid DNA (each 0.5 μg: Stratagene) was transfected into the incubated tissue using a Lipofectamin transfection reagent (Invitrogen, Carlsbad, Calif., U.S.A.). After 24 hours, the complete medium was exchanged with a basic medium (DMEM, supplemented with heat inactivated 1% FBS, 10 mM HEPES, penicillin 100 U/mL, streptomycin 100 μg/mL). […] After 1 hour, the culture medium of each group was treated with 5 ng/mL rhIL-1α (R&D systems, Minneapolis, USA). Then, the culture medium was incubated at […] under 5% CO2/95% air conditions for 60 hours, and then treated with a lysis buffer (0.1M potassium phosphate buffer, pH 7.8/1% Triton X-100/1 mM DTT/2 mM EDTA), and the luciferase activity in the culture medium was measured using a luminometer (Monolight 2010).

arthritis induced rabbit = assay: External-use compositions in collagenase arthritis induced rabbit; type: in vivo; conditions: for Heating score / Limping score / Reddening score / Swelling score: score 0-3; for Max. Effect during Treatment: (total score 7th day − 14th day)/7th day; for Total Treatment Effect: (total score 7th day − 21st day)/7th day; for Healing Effect upon Discontinuation of Treatment: (total score 14th day − 21st day)/14th day
Protocol: The composition of a carrier used to absorb the active ingredient into the skin was made referring to Bookman et al (Can. Med. Assoc. J. 171(4) 333-338 (2004)).
In order to induce arthritis in the rabbit, six test groups were set up, and five rabbits were randomly assigned into each group. A collagenase solution (4 mg/mL, saline) was filtered with a 0.22 μm membrane. 2.5˜3.0 kg weighed rabbits assigned into six test groups were anesthetized with tiletamine-zolazepam (Zoletil 50, Virbac, France). The region around the right knee joint of each rabbit was shaved and disinfected, after which the articular cavity thereof was injected with 0.25 mL of saline in one test group and 0.25 mL of the collagenase solution in the other five test groups (Choi, et al. Osteoarthritis and Cartilage 10, 471-478 (2002)). […] This model has been adopted because it is similar to the degeneration of the cartilage tissue in the human degenerative arthritis.
From the 7th day, 0.3 mL of each of the external-use compositions of Table 3 was sufficiently applied two times per day for 7 days to the affected part of the five test groups treated with the collagenase solution, and no treatment was performed for the following 7 days in order to evaluate the fundamental healing effects. The swelling, reddening, heat and limping of the articular part were quantitatively evaluated on the day (0th day) immediately before collagenase treatment, the 7th day, the 14th day and the 21st day, using the evaluation criteria comprising 0 (normal), 1 (low), 2 (middle), 3 (high). In order to objectively evaluate the effects of respective treatment solutions, the total score at each evaluation was compared, and “maximum effect during treatment”, “total treatment effect”, “healing effect upon discontinuation of treatment” were calculated by the following equations.
(1) Maximum effect during treatment=(total score on 7th day−total score on 14th day)/total score on 7th day,
(2) Total treatment effect=(total score on 7th day−total score on 21st day)/total score on 7th day,
(3) Healing effect upon discontinuation of treatment=(total score on 14th day−total score on 21st day)/total score on 14th day.

NF-kB = assay: NFkB-luciferase reporter in IL-1α-stimulated rabbit articular cartilage tissue; type: cell-based; conditions: 10 μg/mL, 5 ng/mL rhIL-1α
Protocol: as §1

[1] = 7th Day (before treatment), 1.5% active, 0.3 mL twice daily topical
[2] = 14th Day (end of 7-day treatment)
[3] = 21st Day (7 days after discontinuation)

With `CC(=O)Oc1ccccc1C(=O)O` [Aspirin, aspirin] the inhibition at 10 µg/mL (AP-1) was 46%, the Heating score (arthritis induced rabbit; 7th Day (before treatment)) was 3.0 ± 0.00 and the Limping score (arthritis induced rabbit; 7th Day (before treatment)) was 2.8 ± 0.45. The Reddening score (arthritis induced rabbit; 7th Day (before treatment)) was 2.8 ± 0.45, the Swelling score (arthritis induced rabbit; [1]) was 3.0 ± 0.00 and the “Total Score” value (arthritis induced rabbit; 14th Day) was 6.0 ± 0.71. For the same compound, the Swelling score (arthritis induced rabbit; [2]) was 1.6 ± 0.55, the Heating score (arthritis induced rabbit; 14th Day) was 1.4 ± 0.55 and the Limping score (arthritis induced rabbit; 14th Day) was 1.4 ± 0.55. The Reddening score (arthritis induced rabbit; 14th Day) was 1.6 ± 0.55, the “Total Score” value (arthritis induced rabbit; 21st Day) was 5.0 ± 1.0 and the Swelling score (arthritis induced rabbit; [3]) was 1.2 ± 0.45. For the same compound, the Heating score (arthritis induced rabbit; 21st Day) was 1.2 ± 0.45, the Limping score (arthritis induced rabbit; 21st Day) was 1.2 ± 0.45 and the Reddening score (arthritis induced rabbit; 21st Day) was 1.4 ± 0.55. The “Max. Effect during Treatment” value (arthritis induced rabbit) was 48.3%, the “Total Treatment Effect” value (arthritis induced rabbit) was 56.9% and the “Healing Effect upon Discontinuation of Treatment” value (arthritis induced rabbit) was 16.7%. The “NF-kB Activity Inhibition (%)” value (NF-kB) was 48%.

`Cc1ccc(-c2cc(C(F)(F)F)nn2-c2ccc(S(N)(=O)=O)cc2)cc1` [Celecoxib, celecoxib] was tested, and the inhibition at 10 µg/mL (AP-1) was 23% and the “NF-kB Activity Inhibition (%)” value (NF-kB) was 10%.

In the case of `O=C([O-])Cc1ccccc1Nc1c(Cl)cccc1Cl.[Na+]` [Dichlofenac Sodium], the “Total Score” value (arthritis induced rabbit; 7th Day (before treatment)) is reported as 11.4 ± 1.34, the Heating score (arthritis induced rabbit; 7th Day (before treatment)) is reported as 2.8 ± 0.45 and the Limping score (arthritis induced rabbit; 7th Day (before treatment)) is reported as 3.0 ± 0.00. For the same compound, the Reddening score (arthritis induced rabbit; 7th Day (before treatment)) was 2.8 ± 0.45, the Swelling score (arthritis induced rabbit; [1]) was 2.8 ± 0.45 and the “Total Score” value (arthritis induced rabbit; 14th Day) was 5.8 ± 1.3. The Swelling score (arthritis induced rabbit; [2]) was 1.4 ± 0.55, the Heating score (arthritis induced rabbit; 14th Day) was 1.4 ± 0.55 and the Limping score (arthritis induced rabbit; 14th Day) was 1.6 ± 0.55. For the same compound, the Reddening score (arthritis induced rabbit; 14th Day) was 1.4 ± 0.55, the “Total Score” value (arthritis induced rabbit; 21st Day) was 5.4 ± 0.55 and the Swelling score (arthritis induced rabbit; [3]) was 1.4 ± 0.55. The Heating score (arthritis induced rabbit; 21st Day) was 1.2 ± 0.45, the Limping score (arthritis induced rabbit; 21st Day) was 1.4 ± 0.55 and the Reddening score (arthritis induced rabbit; 21st Day) was 1.4 ± 0.55. The “Max. Effect during Treatment” value (arthritis induced rabbit) was 49.1%, the “Total Treatment Effect” value (arthritis induced rabbit) was 52.6% and the “Healing Effect upon Discontinuation of Treatment” value (arthritis induced rabbit) was 6.9%.

With `O=C(O)Cc1ccccc1Nc1c(Cl)cccc1Cl` [Dichlofenac, dichlofenac] the “AP-1 Activity Inhibition (%)” value (AP-1) was 34% and the “NF-kB Activity Inhibition (%)” value (NF-kB) was 32%.

`CC(C)Cc1ccc(C(C)C(=O)O)cc1` (stereo not shown) [Ibuprofen, ibuprofen] was tested, and the inhibition at 10 µg/mL (AP-1) was 27% and the “NF-kB Activity Inhibition (%)” value (NF-kB) was 23%.

In the case of `COc1ccc2c(c1)c(CC(=O)O)c(C)n2C(=O)c1ccc(Cl)cc1` [Indomethacin, indomethacin], the inhibition at 10 µg/mL (AP-1) is reported as 34%.

For `CC(C(=O)O)c1cccc(C(=O)c2ccccc2)c1` (stereo not shown) [Ketoprofen, ketoprofen], the inhibition at 10 µg/mL (AP-1) was 22% and the “NF-kB Activity Inhibition (%)” value (NF-kB) was 12%.
